Assay results taken from PubChem BioAssay (NCI).
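Protocol summary: plate cells (96-well), add compound at 5 concentrations, incubate 48 h, interpolate endpoints linearly. The concentration for 50% growth inhibition is given as GI50. TGI: concentration producing complete growth inhibition.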

Legend:
Experiment in all cases: NCI anticancer screen, dose series, 48 h
[1] = system: NCI-H23 lung
[2] = system: NCI-H460 lung
[3] = system: NCI-H522 lung
[4] = system: NCI/ADR-RES ovarian
[5] = system: OVCAR-3 ovarian
[6] = system: OVCAR-4 ovarian
[7] = system: OVCAR-5 ovarian
[8] = system: OVCAR-8 ovarian
[9] = system: PC-3 prostate
[10] = system: RPMI-8226 leukemia
[11] = system: RXF 393 renal
[12] = system: SF-268 CNS
[13] = system: SF-295 CNS
[14] = system: SF-539 CNS
[15] = system: SK-MEL-2 melanoma
[16] = system: SK-MEL-28 melanoma
[17] = system: SK-MEL-5 melanoma
[18] = system: SK-OV-3 ovarian
[19] = system: SN12C renal
[20] = system: SNB-19 CNS
[21] = system: SNB-75 CNS
[22] = system: SR leukemia
[23] = system: SW-620 colon
[24] = system: T-47D breast
[25] = system: TK-10 renal
[26] = system: U251 CNS
[27] = system: UACC-257 melanoma
[28] = system: UACC-62 melanoma
[29] = system: UO-31 renal

## COc1cccc(C(=O)c2sc(Nc3ccc(N4CCN(C(C)C)CC4)cc3)nc2N)c1
[1]
  TGI: 8.01 µM
[2]
  GI50: 0.92 µM
  TGI: 7.87 µM
[3]
  GI50: 3.94 µM
  TGI: 7.86 µM
[4]
  GI50: 2.46 µM
  TGI: > 22.9 µM
[5]
  GI50: 1.52 µM
  TGI: 9.18 µM
[6]
  GI50: 3.48 µM
  TGI: 16.2 µM
[7]
  GI50: 0.769 µM
  TGI: > 22.4 µM
[8]
  GI50: 1.49 µM
  TGI: 24.8 µM
[9]
  GI50: 0.892 µM
  TGI: 10.9 µM
[10]
  GI50: 1.34 µM
  TGI: 6.52 µM
[11]
  GI50: 0.437 µM
  TGI: 1.12 µM
[12]
  GI50: 1.52 µM
  TGI: 5.06 µM
[13]
  GI50: 2.55 µM
  TGI: 8.83 µM
[14]
  GI50: 1.55 µM
  TGI: 4.65 µM
[15]
  GI50: 1.8 µM
  TGI: 5.49 µM
[16]
  GI50: 1.85 µM
  TGI: 7.05 µM
[17]
  GI50: 1.33 µM
  TGI: 5.21 µM
[18]
  GI50: 5.91 µM
  TGI: > 24.1 µM
[19]
  GI50: 0.895 µM
  TGI: 13.8 µM
[20]
  GI50: 1.04 µM
  TGI: > 25 µM
[21]
  GI50: 2.02 µM
  TGI: 5.34 µM
[22]
  GI50: 0.478 µM
  TGI: > 7.24 µM
[23]
  GI50: 0.853 µM
  TGI: > 13.1 µM
[24]
  GI50: 2.11 µM
  TGI: 13.5 µM
[25]
  GI50: 1.34 µM
  TGI: 9.19 µM
[26]
  GI50: 0.949 µM
  TGI: 7.1 µM
[27]
  GI50: 3.03 µM
  TGI: 6.34 µM
[28]
  GI50: 2.84 µM
  TGI: 6.21 µM
[29]
  GI50: 1.4 µM
  TGI: 7.16 µM
